Measured values taken from ChEMBL document CHEMBL4371026, “Prodrugs of the cancer cell selective anti-cancer agent (Z)-2-(1H-indol-3-yl)-3-(isoquinolin-5-yl)acrylonitrile (A131) are orally efficacious in a mouse model of resistant colon cancer” (Bioorg Med Chem Lett, 2019).
Activity calls are given as the source filed them. The calls are words filed in the database; no cut-off is given here.

How the values were obtained:
HCT-15 [1] = assay: Anticancer activity against paclitaxel-resistant human HCT15 cells xenografted in BALB/c athymic mouse assessed as tumor volume at 20 mg/kg, ip administered twice a day for 12 days measured on day 12 (reference value: 779 +/- 144 mm3); assay type: functional
HCT-15 [2] = assay: Anticancer activity against paclitaxel-resistant human HCT15 cells xenografted in BALB/c athymic mouse assessed as tumor volume at 20 mg/kg, ip administered twice a day for 12 days measured on day 5 (reference value: 329 +/- 45 mm3); assay type: functional
HCT-15 [3] = assay: Anticancer activity against paclitaxel-resistant human HCT15 cells xenografted in BALB/c athymic mouse assessed as tumor volume at 20 mg/kg, ip administered twice a day for 12 days measured on day 7 (reference value: 495 +/- 109 mm3); assay type: functional
HCT-15 [4] = assay: Anticancer activity against paclitaxel-resistant human HCT15 cells xenografted in BALB/c athymic mouse assessed as tumor volume at 20 mg/kg, ip administered twice a day for 12 days measured on day 1 (reference value: 110 +/- 11 mm3); assay type: functional
HCT-15 [5] = assay: Anticancer activity against paclitaxel-resistant human HCT15 cells xenografted in BALB/c athymic mouse assessed as tumor volume at 20 mg/kg, ip administered twice a day for 12 days measured on day 9 (reference value: 546 +/- 87 mm3); assay type: functional
HCT-15 [6] = assay: Anticancer activity against paclitaxel-resistant human HCT15 cells xenografted in BALB/c athymic mouse assessed as tumor volume at 20 mg/kg, ip administered twice a day for 12 days measured on day 3 (reference value: 180 +/- 36 mm3); assay type: functional
HCT-15 [7] = assay: Anticancer activity against paclitaxel-resistant human HCT15 cells xenografted in BALB/c athymic mouse assessed as tumor volume at 40 mg/kg, ip administered twice a day for 12 days measured on day 12 (reference value: 779 +/- 144 mm3); assay type: functional
HCT-15 [8] = assay: Anticancer activity against paclitaxel-resistant human HCT15 cells xenografted in BALB/c athymic mouse assessed as tumor volume at 80 mg/kg, po administered twice a day for 12 days measured on day 1 (reference value: 110 +/- 11 mm3); assay type: functional
HCT-15 [9] = assay: Anticancer activity against paclitaxel-resistant human HCT15 cells xenografted in BALB/c athymic mouse assessed as tumor volume at 80 mg/kg, po administered twice a day for 12 days measured on day 9 (reference value: 546 +/- 87 mm3); assay type: functional
HCT-15 [10] = assay: Anticancer activity against paclitaxel-resistant human HCT15 cells xenografted in BALB/c athymic mouse assessed as tumor volume at 80 mg/kg, po administered twice a day for 12 days measured on day 3 (reference value: 180 +/- 36 mm3); assay type: functional
HCT-15 [11] = assay: Anticancer activity against paclitaxel-resistant human HCT15 cells xenografted in BALB/c athymic mouse assessed as tumor volume at 40 mg/kg, ip administered twice a day for 12 days measured on day 1 (reference value: 110 +/- 11 mm3); assay type: functional
[12] = Solubility of the compound in 10%DMSO/50%PEG400/40%H2O; assay type: physicochemical
HCT-15 [13] = assay: Anticancer activity against paclitaxel-resistant human HCT15 cells xenografted in BALB/c athymic mouse assessed as tumor volume at 80 mg/kg, po administered twice a day for 12 days measured on day 5 (reference value: 329 +/- 45 mm3); assay type: functional
HCT-15 [14] = assay: Anticancer activity against paclitaxel-resistant human HCT15 cells xenografted in BALB/c athymic mouse assessed as tumor volume at 80 mg/kg, po administered twice a day for 12 days measured on day 12 (reference value: 779 +/- 144 mm3); assay type: functional
HCT-15 [15] = assay: Anticancer activity against paclitaxel-resistant human HCT15 cells xenografted in BALB/c athymic mouse assessed as tumor volume at 80 mg/kg, po administered twice a day for 12 days measured on day 7 (reference value: 495 +/- 109 mm3); assay type: functional
HCT-15 [16] = assay: Anticancer activity against paclitaxel-resistant human HCT15 cells xenografted in BALB/c athymic mouse assessed as tumor volume at 40 mg/kg, ip administered twice a day for 12 days measured on day 3 (reference value: 180 +/- 36 mm3); assay type: functional
HCT-15 [17] = assay: Anticancer activity against paclitaxel-resistant human HCT15 cells xenografted in BALB/c athymic mouse assessed as tumor volume at 40 mg/kg, ip administered twice a day for 12 days measured on day 7 (reference value: 495 +/- 109 mm3); assay type: functional
HCT-15 [18] = assay: Anticancer activity against paclitaxel-resistant human HCT15 cells xenografted in BALB/c athymic mouse assessed as tumor growth inhibition at 80 mg/kg, po administered twice a day for 12 days relative to control; assay type: functional; settings: HCT-15, po, 288 h, read-out: TGI
HCT-15 [19] = assay: Anticancer activity against paclitaxel-resistant human HCT15 cells xenografted in BALB/c athymic mouse assessed as tumor volume at 40 mg/kg, ip administered twice a day for 12 days measured on day 5 (reference value: 329 +/- 45 mm3); assay type: functional
HCT-15 [20] = assay: Anticancer activity against paclitaxel-resistant human HCT15 cells xenografted in BALB/c athymic mouse assessed as tumor volume at 40 mg/kg, ip administered twice a day for 12 days measured on day 9 (reference value: 546 +/- 87 mm3); assay type: functional
BJ [21] = assay: Induction of mitosis in transformed human BJ cells assessed as increase in pH3 Ser10 expression at 5 uM after 24 hrs by Western blot analysis relative to control; assay type: functional
BJ [22] = assay: Induction of autophagy in transformed human BJ cells assessed as increase in LC3-2 to LC3-1 ratio at 5 uM after 24 hrs by Western blot analysis relative to control; assay type: functional
HCT-15 [23] = assay: Anticancer activity against paclitaxel-resistant human HCT15 cells xenografted in BALB/c athymic mouse assessed as tumor volume at 40 mg/kg, iv administered thrice every 4 days measured on day 9 (reference value: 546 +/- 87 mm3); assay type: functional
HCT-15 [24] = assay: Anticancer activity against paclitaxel-resistant human HCT15 cells xenografted in BALB/c athymic mouse assessed as tumor volume at 40 mg/kg, iv administered thrice every 4 days measured on day 7 (reference value: 495 +/- 109 mm3); assay type: functional
HCT-15 [25] = assay: Anticancer activity against paclitaxel-resistant human HCT15 cells xenografted in BALB/c athymic mouse assessed as tumor growth inhibition at 40 mg/kg, iv administered thrice every 4 days; assay type: functional, organism-based
HCT-15 [26] = assay: Anticancer activity against paclitaxel-resistant human HCT15 cells xenografted in BALB/c athymic mouse assessed as tumor volume at 40 mg/kg, iv administered thrice every 4 days measured on day 1 (reference value: 110 +/- 11 mm3); assay type: functional
HCT-15 [27] = assay: Anticancer activity against paclitaxel-resistant human HCT15 cells xenografted in BALB/c athymic mouse assessed as tumor volume at 40 mg/kg, iv administered thrice every 4 days measured on day 5 (reference value: 329 +/- 45 mm3); assay type: functional
HCT-15 [28] = assay: Anticancer activity against paclitaxel-resistant human HCT15 cells xenografted in BALB/c athymic mouse assessed as tumor volume at 40 mg/kg, iv administered thrice every 4 days measured on day 3 (reference value: 180 +/- 36 mm3); assay type: functional
HCT-15 [29] = assay: Anticancer activity against paclitaxel-resistant human HCT15 cells xenografted in BALB/c athymic mouse assessed as tumor volume at 40 mg/kg, iv administered thrice every 4 days measured on day 12 (reference value: 779 +/- 144 mm3); assay type: functional

Cl.N#C/C(=C\c1cccc2cnccc12)c1c[nH]c2ccccc12
Activity (HCT-15 [1]): 289 mm3 | Activity (HCT-15 [2]): 153 mm3 | Activity (HCT-15 [3]): 204 mm3 | Activity (HCT-15 [4]): 116 mm3 | Activity (HCT-15 [5]): 225 mm3 | Activity (HCT-15 [6]): 125 mm3

CN1CCN(CC(=O)n2cc(/C(C#N)=C/c3cccc4cnccc34)c3ccccc32)CC1.O=C(O)C(F)(F)F
Activity (HCT-15 [7]): 244 mm3 | Activity (HCT-15 [8]): 96 mm3 | Activity (HCT-15 [9]): 209 mm3 | Activity (HCT-15 [10]): 95 mm3 | Activity (HCT-15 [11]): 100 mm3 | solubility [12]: 8000 µg/mL | Activity (HCT-15 [13]): 143 mm3 | Activity (HCT-15 [14]): 258 mm3 | Activity (HCT-15 [15]): 165 mm3 | Activity (HCT-15 [16]): 109 mm3 | Activity (HCT-15 [17]): 171 mm3 | inhibition in vivo at 80 mg/kg (HCT-15 [18]): 75.8 to 76% | Activity (HCT-15 [19]): 199 mm3 | Activity (HCT-15 [20]): 196 mm3

CC(C)(C)OC(=O)N1CCC(C(=O)n2cc(/C(C#N)=C/c3cccc4cnccc34)c3ccccc32)CC1
fold change (FC) (BJ [21]): 16.2 | fold change (FC) (BJ [22]): 5.2

Cn1cc(/C(C#N)=C/c2cccc3cnccc23)c2ccccc21
fold change (FC) (BJ [21]): 1.1 | fold change (FC) (BJ [22]): 1.6

N#C/C(=C\c1cccc2cnccc12)c1cn(C(=O)CCN)c2ccccc12
fold change (FC) (BJ [21]): 2.1 | fold change (FC) (BJ [22]): 4.1

CN1CCN(C(=O)Cn2cc(/C(C#N)=C/c3cccc4cnccc34)c3ccccc32)CC1
fold change (FC) (BJ [21]): 1.3 | fold change (FC) (BJ [22]): 1.9

CC(=O)NCCC(=O)n1cc(/C(C#N)=C/c2cccc3cnccc23)c2ccccc21
fold change (FC) (BJ [21]): 2.8 | fold change (FC) (BJ [22]): 2.3

CC(=O)O[C@H]1C(=O)[C@@]2(C)[C@H]([C@H](OC(=O)c3ccccc3)[C@]3(O)C[C@H](OC(=O)[C@H](O)[C@@H](NC(=O)c4ccccc4)c4ccccc4)C(C)=C1C3(C)C)[C@]1(OC(C)=O)CO[C@@H]1C[C@@H]2O [PACLITAXEL]
Activity (HCT-15 [23]): 409 mm3 | Activity (HCT-15 [24]): 321 mm3 | TGI (HCT-15 [25]): Active | Activity (HCT-15 [26]): 119 mm3 | Activity (HCT-15 [27]): 288 mm3 | Activity (HCT-15 [28]): 152 mm3 | Activity (HCT-15 [29]): 638 mm3

CS(=O)(=O)n1cc(/C(C#N)=C/c2cccc3cnccc23)c2ccccc21
fold change (FC) (BJ [21]): 0.4 | fold change (FC) (BJ [22]): 0.8
